As usually defined, the pIC50 is −log10 of the IC50, conventionally taken in molar units.

Experimental findings from patent US20260070945A1, “MACROCYCLIC IMMUNOMODULATORS” (Bristol-Myers Squibb Company, priority 2022, published 2026) are described below.

The structures appear in SMILES notation. pIC50: −log10 of the molar value. *1 amine or outer side, *2 acyl side, *3 side chain or, on linkers, in order; H or OH if unused. Where a SMILES comes first, the peptide text is derived from it. Bridges are numbered along the chain shown (N, C = ends). [ ]: non-standard residue; d: D form. The star is where a group is joined. ξ: configuration not given here. Phe(4-COOH) = N[C@@H](Cc1ccc(C(=O)O)cc1)C(=O)O; Bip = N[C@@H](Cc1ccc(-c2ccccc2)cc1)C(=O)O; γGlu = O=C(O)[C@H](CCC(=O)[*:2])N[*:1]; 4Pal = N[C@@H](Cc1ccncc1)C(=O)O; Cha = N[C@@H](CC1CCCCC1)C(=O)O; Ile(3ξ) = CCC(C)[C@H](N)C(=O)O; Thr(3ξ) = CC(O)[C@H](N)C(=O)O; dOrn = NCCC[C@@H](N)C(=O)O; Carboxymethyl = O=C(O)C*; NMeA = CN[C@@H](C)C(=O)O; dDap = NC[C@@H](N)C(=O)O; Aun = NCCCCCCCCCCC(=O)O; Dab = NCC[C@H](N)C(=O)O; Dap = NC[C@H](N)C(=O)O; AEEA = NCCOCCOCC(=O)O

T1 sequence (Q15116 25-288): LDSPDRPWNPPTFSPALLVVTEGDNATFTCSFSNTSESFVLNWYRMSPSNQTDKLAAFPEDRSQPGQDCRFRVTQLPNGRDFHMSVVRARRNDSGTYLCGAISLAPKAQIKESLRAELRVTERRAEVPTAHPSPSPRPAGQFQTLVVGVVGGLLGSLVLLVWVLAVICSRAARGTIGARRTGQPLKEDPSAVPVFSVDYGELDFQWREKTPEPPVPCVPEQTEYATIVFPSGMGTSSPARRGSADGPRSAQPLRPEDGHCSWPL

This assay has as its target T1, PD-1/PD-L1 interaction (PE-labeled human PD-L1-Ig binding to Jurkat cell line over-expressing human PD-1) (Homo sapiens, UniProt Q15116).
T1 construct: expressed in transfected cells; host or cells: Jurkat
Nature of the assay: Jurkat-PD-1 Cell Binding High-Content Screening Assay (CBA). Particulars: Jurkat-hPD-1 cells, PE-labeled PD-L1-Ig 20 nM final; read-out: Jurkat HPD1 PDL1 IC50. In a few lines:
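Jurkat cells overexpressing human PD-1 (8×10^3/well, DMEM + 10% FCS) preincubated with compound 2 h at 37 °C, then PE-labelled human PD-L1-Ig (20 nM final) for 1 h. Cells fixed in paraformaldehyde with Hoechst 33342; bound PD-L1 quantified by high-content imaging.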
Take `CCC(C)[C@@H]1NC(=O)[C@H](Cc2ccc(-c3ccccc3)cc2)NC(=O)[C@H](C(C)C)NC(=O)[C@H](Cc2c[nH]c3ccccc23)NC(=O)[C@H](CC(=O)O)NC(=O)[C@H](Cc2ccc(O)cc2)NC(=O)[C@H](Cc2ccncc2)NC(=O)CSC[C@@H](C(=O)N[C@@H](CN)C(=O)NCCOCCOCC(=O)NCCCCCCCCCCC(=O)O)NC(=O)[C@H](C(C)O)NC(=O)[C@H](C(C)C)NC(=O)[C@H](CC2CCCCC2)NC(=O)[C@H](CC(N)=O)NC(=O)[C@@H](CC(C)C)NC(=O)[C@H](C)N(C)C1=O` (stereo partly drawn) [Example 2068] ({CH2CO}-[4Pal]YDWV[Bip][Ile(3ξ)][NMeA][dL]N[Cha]V[Thr(3ξ)]C[Dap][AEEA][Aun]-OH; thioether N-14): the pIC50 is 6.97.
For the compound `CCC(C)[C@@H]1NC(=O)[C@H](Cc2ccc(-c3ccccc3)cc2)NC(=O)[C@H](CC(C)C)NC(=O)[C@H](Cc2c[nH]c3ccccc23)NC(=O)[C@H](CC(=O)O)NC(=O)[C@H](Cc2ccc(C(=O)O)cc2)NC(=O)[C@H](Cc2ccc(OCC(=O)O)cc2)NC(=O)CSC[C@@H](C(=O)N[C@@H](CC(N)=O)C(=O)N[C@@H](CCC(=O)NCCCCCCCCCCC(=O)O)C(=O)O)NC(=O)[C@H](CO)NC(=O)[C@H](C(C)C)NC(=O)[C@H](CC2CCCCC2)NC(=O)[C@H](CCN)NC(=O)[C@@H](CC(C)C)NC(=O)[C@H](C)N(C)C1=O` (stereo partly drawn) [Example 2069] ({CH2CO}-Y(Carboxymethyl)[Phe(4-COOH)]DWL[Bip][Ile(3ξ)][NMeA][dL][Dab][Cha]VSCN[γGlu][Aun]-OH; thioether N-14), the pIC50 was 7.61.
The result for `CCC(C)[C@@H]1NC(=O)[C@H](Cc2ccc(-c3ccccc3)cc2)NC(=O)[C@H](CC(C)C)NC(=O)[C@H](Cc2c[nH]c3ccccc23)NC(=O)[C@H](CC(=O)O)NC(=O)[C@H](Cc2ccc(O)cc2)NC(=O)[C@H](Cc2ccncc2)NC(=O)CSC[C@@H](C(=O)N[C@H](CCCN)C(=O)NCCOCCOCC(=O)NCCCCCCCCCCC(=O)O)NC(=O)[C@H](CO)NC(=O)[C@H](C(C)C)NC(=O)[C@H](CC2CCCCC2)NC(=O)[C@H](CC(N)=O)NC(=O)[C@@H](CC(C)C)NC(=O)[C@H](C)N(C)C1=O` (stereo partly drawn) [Example 2070] ({CH2CO}-[4Pal]YDWL[Bip][Ile(3ξ)][NMeA][dL]N[Cha]VSC[dOrn][AEEA][Aun]-OH; thioether N-14) reads 7.01; that for `CCC(C)[C@@H]1NC(=O)[C@H](Cc2ccc(-c3ccccc3)cc2)NC(=O)[C@H](C(C)C)NC(=O)[C@H](Cc2c[nH]c3ccccc23)NC(=O)[C@H](CC(=O)O)NC(=O)[C@H](Cc2ccc(O)cc2)NC(=O)[C@H](Cc2ccncc2)NC(=O)CSC[C@@H](C(=O)N[C@H](CN)C(=O)NCCOCCOCC(=O)NCCCCCCCCCCC(=O)O)NC(=O)[C@H](C(C)O)NC(=O)[C@H](C(C)C)NC(=O)[C@H](CC2CCCCC2)NC(=O)[C@H](CCN)NC(=O)[C@@H](CC(C)C)NC(=O)[C@H](C)N(C)C1=O` (stereo partly drawn) [Example 2071] ({CH2CO}-[4Pal]YDWV[Bip][Ile(3ξ)][NMeA][dL][Dab][Cha]V[Thr(3ξ)]C[dDap][AEEA][Aun]-OH; thioether N-14), 7.69.
The result for `CCC(C)[C@@H]1NC(=O)[C@H](Cc2ccc(-c3ccccc3)cc2)NC(=O)[C@H](CC(C)C)NC(=O)[C@H](Cc2c[nH]c3ccccc23)NC(=O)[C@H](CC(=O)O)NC(=O)[C@H](Cc2ccc(O)cc2)NC(=O)[C@H](CC(N)=O)NC(=O)CSC[C@@H](C(=O)N[C@@H](C)C(=O)NCCOCCOCC(=O)NCCCCCCCCCCC(=O)O)NC(=O)[C@H](CO)NC(=O)[C@H](C(C)C)NC(=O)[C@H](CC2CCCCC2)NC(=O)[C@H](CCN)NC(=O)[C@@H](CC(C)C)NC(=O)[C@H](C)N(C)C1=O` (stereo partly drawn) [Example 2072] ({CH2CO}-NYDWL[Bip][Ile(3ξ)][NMeA][dL][Dab][Cha]VSCA[AEEA][Aun]-OH; thioether N-14) reads 7.60.
